Results published in patent EP0764149B1, “NOVEL FARNESYL TRANSFERASE INHIBITORS, THEIR PREPARATION AND PHARMACEUTICAL COMPOSITIONS CONTAINING SAME” (RHONE-POULENC RORER S.A., priority 1994, dated 1995).
Read-outs that look alike come from different tables or passages of the source.

What was measured:
[1] = biological target: T1, farnésyltransférase humaine (Homo sapiens, UniProt P49354+P49356); assay: Farnesyltransferase inhibition: transfer of (3H) farnesyl from (3H) FPP to p21 H-Ras; assay type: biochemical; conditions: read-out: Activité inhibitrice IC50
T1 construct: farnésyltransférase humaine purifiée à partir de cultures de cellules THP1; endogenous in cells; host or cells: THP1 cell cultures (enzyme purified from them)
Method: L'activité farnésyltransférase est déterminée par la quantité de (^3H) farnésyl transférée à partir du (^3H) farnésylpyrophosphate [(^3H) FPP) sur la protéine p21 H-Ras. Le mélange réactionnel standard est composé, pour un volume final de 60 µl, de Tris-HCl 50mM, MgCl2 5mM, dithiotréitol 5 mM, octyl-β-D-glucopyranoside 0,2 %, p21 H-ras 200 picomoles, (^3H) FPP (à 61000 dpm/picomole) 4,5 picomoles.
La réaction est initiée par addition d'environ 5 ng de farnésyltransférase humaine purifiée à partir de cultures de cellules THP1. Après incubation pendant 20 minutes à 37°C en plaque de microtitration contenant 96 trous de 1 cm3 par plaque (Titer Plate®, Beckman), la réaction est stoppée par addition de 0,4 cm3 de SDS à 0,1 % dans le méthanol à 0°C. Le mélange est ensuite additionné de 0,4 cm3 d'acide trichloroacétique (TCA) à 30 % dans le méthanol. Les plaques sont laissées pendant 1 heure dans la glace. Le contenu précipité est alors retenu sur membrane en fibre de verre Filtermat®, Pharmacia) avec l'unité de filtration (Combi Cell Harvester®, Skatron) et rincé avec de l'acide trichloroacétique à 6 % dans l'eau distillée. Les membranes sont séchées au four à micro-ondes puis imprégnées de scintillant par fusion sous air chaud de Meltilex® (Pharmacia) et enfin comptées en cpm dans un compteur β-Plate® (LKB). Chaque essai est répété 3 fois.
L'unité d'activité est définie par 1 picomole de (^3H) FPP transférée sur p21 H-Ras en 20 minutes.
Les pourcentages d'inhibition sont obtenus par comparaison des essais avec et sans inhibiteur après déduction des blancs, les IC50 étant mesurées à partir des inhibitions obtenues avec 9 concentrations différentes en utilisant les logiciels Enzfitter® ou Grafit®.

[2] = system: farnésylation de la protéine Ras; assay: Inhibition of Ras protein farnesylation in THAC cells (Triton X114 extraction, Western blot); assay type: cell-based; conditions: 24 h culture, read-out: % d'inhibition sur cellules (THAC)
Text: La lignée cellulaire est la lignée THAC (cellules CCL 39 transfectées par Ha-Ras activé) selon K. Seuwen et coll., EMBO J., 7(1) 161-168 (1988). Les cellules sont ensemencées dans des boîtes de Petri de 6 cm de diamètre contenant un milieu DMEM, sérum de veau foetal 5 %, G418 1 %.
Après 24 heures de culture, le milieu de culture est changé (avec ou sans sérum) et le produit à étudier est ajouté en solution dans le diméthylformamide (DMF), en présence ou en absence de DTT (concentrations finales de 0,5 % en DMF et 0,1mM en DTT). Après 24 heures de culture à 37°C, les cellules sont lysées dans 1 cm3 de tampon de lyse (Tris, HCI 20mM, Triton X114 1 %, MgCl2 5 mM, DIT 7 mM, NaCl 150 mM, pH = 7,4). Les lysats sont clarifiés par centrifugation à 4.000 tours/minute pendant 10 minutes. L'extraction par le Triton X114 permet de séparer la protéine Ras farnésylée de la protéine Ras non farnésylée [C. BORDIER, J. Biol. Chem., 256 (4), 1604-1607 (1981)]. La protéine Ras farnésylée qui est plus hydrophobe se trouve dans la phase détergente tandis que la protéine Ras non farnésylée est dans la phase aqueuse. Les échantillons sont dénaturés par chauffage à 95°C dans du tampon de dénaturation pour électrophorèse et déposées sur un gel de polyacrylamide à 14 %. Lorsque le colorant atteint le bas du gel, les protéines du gel sont transférées sur une membrane PVDF. […]

IC50 ([1]; unit inferred) [nM] | SMILES | further results
1.8 | CSCC[C@H](NC(=O)c1cccc2cc(NC[C@@H](N)CS)ccc12)C(=O)O [Exemple 19, N-[6-(2(R)-amino-3-mercapto-propylamino)-naphtyl-1-carbonyl]-L-méthionine] | inhibition at 50 µM ([2]; à 50 µM): 31%
100 | CSCC[C@H](NC(=O)c1cccc2c(NC[C@@H](N)CS)cccc12)C(=O)OCc1ccccc1 [Exemple 8, ester benzyliquede la N-[5-(2(R)-amino-3-mercapto-propylamino)-naphtyl-1-carbonyl]-L-méthionine] | –
80 | COC(=O)[C@H](CCSC)NC(=O)c1cccc2cc(NC[C@@H](N)CS)ccc12 [Exemple 20, ester méthyliquede la N-[6-(2(R)-amino-3-mercapto-propylamino)-naphtyl-1-carbonyl]-L-méthionine] | inhibition at 10 µM ([2]; à 10 µM): 50%
5.6 | CSCC[C@H](NC(=O)c1cccc2c(NC[C@@H](N)CS)cccc12)C(=O)O [Exemple 3, N-[5-(2(R)-amino-3-mercapto-propylamino)-naphthyl-1-carbonyl]-L-méthionine] | –
70 | COCCOCCOC(=O)[C@H](CCSC)NC(=O)c1cccc2c(NC[C@@H](N)CS)cccc12 [Exemple 9, ester 2-(2-méthoxyéthoxy) éthyliquede la N-[5-(2(R)-amino-3-mercapto-propylamino)-naphtyl-1-carbonyl]-L-méthionine] | –
69 | CCCC[C@H](NC(=O)c1cccc2c(NC[C@@H](N)CS)cccc12)C(=O)O [Exemple 5, N-[5-(2(R)-amino-3-mercapto-propylamino)-naphthyl-1 carbonyl]-L-norleucine] | –
21 | CSCC[C@H](NC(=O)c1cccc2c(NC[C@@H](N)CS)cccc12)C(=O)OCCS(=O)(=O)c1ccccc1 [Exemple 10] | –
48 | CSCC[C@H](NC(=O)c1cccc2c(NC(=O)[C@@H](N)CS)cccc12)C(=O)O [Exemple 1, N-[5-(2(R)-amino-3-mercapto-propionylamino)-naphthyl-1-carbonyl}-L-méthionine] | –
– | CS(=O)(=O)CC[C@H](NC(=O)c1cccc2cc(NC[C@@H](N)CS)ccc12)C(=O)O [Exemple 21, acide 2(S)-[6-(2(R)-amino-3-mercapto-propylamino)-1-naphtoylamino]-4-méthylsulfonyl-butanoïque] | IC50 [1]: 4 nM
